Results reported in publication PMC5923142, “Selection and Characterization of Rupintrivir-Resistant Norwalk Virus Replicon Cells In Vitro” (Antimicrobial Agents and Chemotherapy, 2018).

System: recombinant MNV I109V mutant
Test: Antiviral effect against recombinant MNV I109V mutant infection of BV-2 cells (TCID50)
Type: cell-based, murine norovirus
Conditions: MOIs 0.1 and 1
Experimental: BV-2 cells were infected with recombinant WT MNV or the MNV I109V mutant at an MOI of 0.1 or 1 for 1 h in the CO2 incubator at 37°C. After incubation, the supernatant was removed and the cells were washed twice with PBS, and then complete DMEM containing various concentrations of rupintrivir or 2CMC was added to the cells. After 24 h for incubation, the virus titers of the supernatant were determined by measurement of the TCID50. On the basis of the TCID50, the 90% effective concentration (EC90) values of rupintrivir and 2CMC were calculated using XLfit (version 5.3) software.

Question: `C[C@@]1(O)[C@H](O)[C@@H](CO)O[C@H]1n1ccc(N)nc1=O` [2CMC, 2-C-methylcytidine] was tested. Which “difference in EC90 values between I109V and WT viruses” value did it give?
Answer: no significant difference
